Measured values taken from the supplement of paper PMC10307832.

How the values were obtained:
Experiment in all cases: relative viability (nuclei count vs DMSO), 5 days (fraction); higher = more cells survive
Cediranib + Palbociclib = compound: COc1cc2c(Oc3ccc4[nH]c(C)cc4c3F)ncnc2cc1OCCCN1CCCC1 [Cediranib] + CC(=O)c1c(C)c2cnc(Nc3ccc(N4CCNCC4)cn3)nc2n(C2CCCC2)c1=O [Palbociclib] (partner 0.5 µM)
Outline: (§1)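 Five library-drug doses in √10 steps were combined with a fixed anchor-drug dose, or a single drug was given alone, by pin tool to lung cancer cell lines in 1536-well plates the day after seeding. Nuclei were stained and counted after 5 days. Relative viability is the nuclei count in treated wells over that in vehicle wells, taken as the median of duplicate plates.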

Decitabine + Pictilisib = compound: Nc1ncn([C@H]2C[C@H](O)[C@@H](CO)O2)c(=O)n1 [Decitabine] + CS(=O)(=O)N1CCN(Cc2cc3nc(-c4cccc5[nH]ncc45)nc(N4CCOCC4)c3s2)CC1 [Pictilisib] (partner 1 µM)
Outline: as §1

Decitabine + Crizotinib = compound: Nc1ncn([C@H]2C[C@H](O)[C@@H](CO)O2)c(=O)n1 [Decitabine] + C[C@@H](Oc1cc(-c2cnn(C3CCNCC3)c2)cnc1N)c1c(Cl)ccc(F)c1Cl [Crizotinib] (partner 1 µM)
Outline: as §1

[1] = compound: O=C(C[C@H]1NCCC[C@@H]1O)Cn1cnc2cc(Br)c(Cl)cc2c1=O (racemic) [Halofuginone] + CC(=O)c1c(C)c2cnc(Nc3ccc(N4CCNCC4)cn3)nc2n(C2CCCC2)c1=O [Palbociclib] (partner 0.5 µM)
Outline: as §1

Cell Line | relative viability (Cediranib + Palbociclib; first compound 0.04 µM) | relative viability (Cediranib + Palbociclib; first compound 0.4 µM) | relative viability (Cediranib + Palbociclib; first compound 1.265 µM) | relative viability (Cediranib + Palbociclib; first compound 4 µM) | relative viability (Decitabine + Pictilisib; first compound 0.04 µM) | relative viability (Decitabine + Pictilisib; first compound 0.1265 µM) | relative viability (Decitabine + Pictilisib; first compound 0.4 µM) | relative viability (Decitabine + Pictilisib; first compound 1.265 µM) | relative viability (Decitabine + Pictilisib; first compound 4 µM) | relative viability (Decitabine + Crizotinib; first compound 0.04 µM) | relative viability (Decitabine + Crizotinib; first compound 0.1265 µM) | relative viability (Decitabine + Crizotinib; first compound 0.4 µM) | relative viability (Decitabine + Crizotinib; first compound 1.265 µM) | relative viability (Decitabine + Crizotinib; first compound 4 µM) | relative viability ([1]; first compound 0.001 µM) | relative viability ([1]; first compound 0.003162 µM) | relative viability ([1]; first compound 0.01 µM) | relative viability ([1]; first compound 0.03162 µM) | relative viability ([1]; first compound 0.1 µM) | relative viability (Cediranib + Palbociclib; first compound 0.1265 µM)
LXF-289 | 0.617 | 0.569 | 0.566 | 0.609 | 0.75 | 0.808 | 0.471 | 0.4 | 0.317 | 0.579 | 0.557 | 0.432 | 0.341 | 0.308 | 0.553 | 0.608 | 0.577 | 0.603 | 0.581 | –
NCI-H23 | 0.585 | 0.547 | 0.429 | 0.56 | 0.528 | 0.59 | 0.281 | 0.266 | 0.196 | 0.338 | 0.373 | 0.21 | 0.175 | 0.163 | 0.694 | 0.501 | 0.479 | 0.562 | 0.331 | 0.601
NCI-H322M | 0.46 | 0.464 | 0.492 | 0.524 | 0.408 | 0.537 | 0.53 | 0.397 | 0.424 | 0.724 | 0.661 | 0.673 | 0.36 | 0.363 | 0.549 | 0.475 | 0.45 | 0.465 | 0.357 | 0.589
NCI-H358 | 0.142 | 0.129 | 0.13 | 0.14 | 0.315 | 0.335 | 0.352 | 0.313 | 0.25 | 0.385 | 0.39 | 0.246 | 0.192 | 0.161 | 0.142 | 0.127 | 0.141 | 0.129 | 0.0899 | 0.177
NCI-H441 | 0.202 | 0.22 | 0.205 | 0.275 | 0.28 | 0.306 | 0.286 | 0.205 | 0.179 | 0.361 | 0.224 | 0.223 | 0.188 | 0.184 | 0.254 | 0.241 | 0.206 | 0.241 | 0.152 | 0.258
NCI-H460 | 0.196 | 0.21 | 0.161 | 0.202 | 0.389 | 0.549 | 0.524 | 0.373 | 0.334 | 0.524 | 0.623 | 0.22 | 0.186 | 0.126 | 0.233 | 0.237 | 0.207 | 0.182 | 0.0284 | 0.175
NCI-H520 | 0.262 | 0.175 | 0.162 | 0.179 | 0.315 | 0.271 | 0.241 | 0.222 | 0.198 | 0.654 | 0.544 | 0.399 | 0.308 | 0.26 | 0.191 | 0.222 | 0.208 | 0.232 | 0.2 | 0.22
NCI-H647 | 0.349 | 0.336 | 0.457 | 0.448 | 0.504 | 0.566 | 0.42 | 0.191 | 0.214 | 0.852 | 0.704 | 0.549 | 0.211 | 0.174 | 0.413 | 0.399 | 0.422 | 0.287 | 0.105 | 0.385
NCI-H650 | 0.381 | 0.334 | 0.34 | 0.308 | 0.81 | 0.779 | 0.574 | 0.443 | 0.33 | 0.533 | 0.524 | 0.303 | 0.264 | 0.195 | 0.362 | 0.337 | 0.302 | 0.294 | 0.305 | 0.321
NCI-H661 | 0.452 | 0.405 | 0.391 | 0.442 | 0.346 | 0.344 | 0.372 | 0.288 | 0.242 | 0.929 | 0.945 | 0.918 | 0.619 | 0.523 | 0.422 | 0.405 | 0.37 | 0.373 | 0.312 | 0.441
NCI-H727 | 0.649 | 0.703 | 0.616 | 0.644 | 0.272 | 0.353 | 0.316 | 0.418 | 0.257 | 0.711 | 0.513 | 0.537 | 0.341 | 0.33 | 0.715 | 0.582 | 0.677 | 0.703 | 0.575 | 0.736
NCI-H838 | 0.229 | 0.218 | 0.181 | 0.214 | 0.415 | 0.357 | 0.308 | 0.24 | 0.226 | 0.389 | 0.314 | 0.228 | 0.248 | 0.2 | 0.234 | 0.25 | 0.199 | 0.171 | 0.0921 | 0.228
NCI-H1355 | 0.413 | 0.367 | 0.39 | 0.423 | 0.529 | 0.44 | 0.293 | 0.254 | 0.23 | 0.642 | 0.495 | 0.413 | 0.29 | 0.281 | 0.414 | 0.435 | 0.368 | 0.413 | 0.38 | 0.426
NCI-H1437 | 0.32 | 0.291 | 0.349 | 0.335 | 0.455 | 0.408 | 0.287 | 0.172 | 0.166 | 0.692 | 0.748 | 0.632 | 0.297 | 0.216 | 0.334 | 0.3 | 0.296 | 0.33 | 0.286 | 0.305
NCI-H1650 | 0.421 | 0.304 | 0.404 | 0.334 | 0.445 | 0.595 | 0.272 | 0.47 | 0.399 | 0.838 | 0.603 | 0.331 | 0.326 | 0.241 | 0.265 | 0.303 | 0.323 | 0.323 | 0.173 | 0.328
NCI-H1651 | 0.534 | 0.499 | 0.523 | 0.527 | 0.481 | 0.598 | 0.624 | 0.503 | 0.434 | 0.788 | 0.836 | 0.755 | 0.586 | 0.635 | 0.523 | 0.515 | 0.51 | 0.513 | 0.509 | 0.551
